In article PMC3314994, “Inhibitors of human histone deacetylase with potent activity against the African trypanosome Trypanosoma brucei” (Bioorganic & Medicinal Chemistry Letters, 2012):

Experiments:
Trypanosoma brucei (BSF) [1] = experiment: Growth inhibition of cultured bloodstream form T. brucei; type: cell-based, Trypanosoma brucei (strain 427)
Description: Treatment of parasites with micromolar levels of these inhibitors could result in cell death within 4 h (Fig. 1).
[30] Growth inhibitory properties against cultured bloodstream form T. brucei were determined as described previously.[29] Experiments were performed in triplicate and data are presented as ±SD.

HDAC (FDL_HELA) = experiment: Histone deacetylase activity in HeLa cell lysates (fluorescent assay kit); type: biochemical, Human; details: lysed HeLa cells; read-out: HDAC (FDL_HELA) IC50 ± SD
Description: (§1) The compounds from the different structural subclasses were all active as HDAC inhibitors, measured in an assay of enzymes in HeLa cell lysates.[23,24] HeLa cells express multiple HDACs, including HDAC 1, 2, 3, 4, and 8.[25–27] […] To further characterise the compounds with respect to HDAC selectivity, we determined their inhibitory properties against recombinant expressed human HDACs (rhHDAC 1–4, 6–9).[28]
[24] Histone deacetylase activity was determined in lysed Human cervix epithelial cancer HeLa cells. To determine the IC50 of test compound a commercially available fluorescent assay kit was used employing an acetylated enzyme substrate.[23]

rhHDAC 1 = rhHDAC 1 (Homo sapiens, UniProt Q13547); experiment: Inhibition of recombinant human HDAC isoforms; type: biochemical; details: mean ± SD, triplicate per plate, min two plates; read-out: ED50 rhHDAC 1
rhHDAC 1, sequence (Q13547 whole entry, canonical isoform): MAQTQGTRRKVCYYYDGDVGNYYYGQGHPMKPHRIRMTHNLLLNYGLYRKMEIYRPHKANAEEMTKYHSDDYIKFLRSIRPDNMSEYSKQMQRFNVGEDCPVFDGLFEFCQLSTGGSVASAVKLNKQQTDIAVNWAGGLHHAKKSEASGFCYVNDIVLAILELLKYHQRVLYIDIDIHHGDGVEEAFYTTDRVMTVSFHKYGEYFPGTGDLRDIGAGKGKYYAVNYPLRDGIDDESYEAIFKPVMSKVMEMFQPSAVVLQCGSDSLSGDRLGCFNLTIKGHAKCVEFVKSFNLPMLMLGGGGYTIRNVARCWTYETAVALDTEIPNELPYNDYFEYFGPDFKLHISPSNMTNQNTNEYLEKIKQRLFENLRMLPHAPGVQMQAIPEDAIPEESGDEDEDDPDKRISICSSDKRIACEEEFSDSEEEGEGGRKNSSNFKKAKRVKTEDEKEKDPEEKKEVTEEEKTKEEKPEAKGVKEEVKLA
From the text: as §1

rhHDAC 2 = rhHDAC 2 (Homo sapiens, UniProt Q92769); experiment: Inhibition of recombinant human HDAC isoforms; type: biochemical; details: mean ± SD, triplicate per plate, min two plates; read-out: ED50 rhHDAC 2
rhHDAC 2, sequence (Q92769 whole entry, canonical isoform): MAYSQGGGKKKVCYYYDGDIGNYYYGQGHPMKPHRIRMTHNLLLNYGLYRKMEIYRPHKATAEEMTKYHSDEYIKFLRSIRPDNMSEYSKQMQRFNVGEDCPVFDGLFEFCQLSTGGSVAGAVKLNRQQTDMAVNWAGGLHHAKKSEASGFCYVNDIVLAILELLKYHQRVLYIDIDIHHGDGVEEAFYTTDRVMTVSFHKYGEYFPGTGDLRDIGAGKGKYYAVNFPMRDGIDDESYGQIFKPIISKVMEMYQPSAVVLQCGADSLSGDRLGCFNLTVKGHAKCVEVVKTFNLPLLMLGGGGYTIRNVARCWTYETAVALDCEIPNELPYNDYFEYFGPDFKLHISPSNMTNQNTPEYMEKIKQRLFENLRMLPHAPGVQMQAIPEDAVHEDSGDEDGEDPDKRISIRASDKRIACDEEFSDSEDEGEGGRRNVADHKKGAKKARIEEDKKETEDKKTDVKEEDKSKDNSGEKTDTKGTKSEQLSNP
From the text: as §1

rhHDAC 3 = rhHDAC 3 (Homo sapiens, UniProt O15379); experiment: Inhibition of recombinant human HDAC isoforms; type: biochemical; details: mean ± SD, triplicate per plate, min two plates; read-out: ED50 rhHDAC 3
rhHDAC 3, sequence (O15379 whole entry, canonical isoform): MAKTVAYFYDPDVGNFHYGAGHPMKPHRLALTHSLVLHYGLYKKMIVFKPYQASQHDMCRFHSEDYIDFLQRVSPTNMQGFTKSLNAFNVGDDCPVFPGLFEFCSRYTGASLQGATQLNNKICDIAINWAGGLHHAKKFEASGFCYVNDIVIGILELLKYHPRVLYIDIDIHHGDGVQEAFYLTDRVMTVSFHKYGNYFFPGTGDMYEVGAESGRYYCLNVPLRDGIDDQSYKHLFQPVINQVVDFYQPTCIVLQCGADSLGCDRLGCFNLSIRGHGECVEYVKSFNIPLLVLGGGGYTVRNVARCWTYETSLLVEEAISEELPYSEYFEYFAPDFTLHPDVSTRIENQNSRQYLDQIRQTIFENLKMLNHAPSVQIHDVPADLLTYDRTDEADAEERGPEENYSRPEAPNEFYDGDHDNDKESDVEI
rhHDAC 3, sequence (Q9Y618 395-489 partner limits assumed): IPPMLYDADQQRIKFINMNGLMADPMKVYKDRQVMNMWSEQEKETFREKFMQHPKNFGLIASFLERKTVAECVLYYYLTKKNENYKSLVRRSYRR
From the text: as §1

rhHDAC 4 = rhHDAC 4 (Homo sapiens, UniProt P56524); experiment: Inhibition of recombinant human HDAC isoforms; type: biochemical; details: mean ± SD, triplicate per plate, min two plates; read-out: ED50 rhHDAC 4
rhHDAC 4, sequence (P56524 whole entry, canonical isoform): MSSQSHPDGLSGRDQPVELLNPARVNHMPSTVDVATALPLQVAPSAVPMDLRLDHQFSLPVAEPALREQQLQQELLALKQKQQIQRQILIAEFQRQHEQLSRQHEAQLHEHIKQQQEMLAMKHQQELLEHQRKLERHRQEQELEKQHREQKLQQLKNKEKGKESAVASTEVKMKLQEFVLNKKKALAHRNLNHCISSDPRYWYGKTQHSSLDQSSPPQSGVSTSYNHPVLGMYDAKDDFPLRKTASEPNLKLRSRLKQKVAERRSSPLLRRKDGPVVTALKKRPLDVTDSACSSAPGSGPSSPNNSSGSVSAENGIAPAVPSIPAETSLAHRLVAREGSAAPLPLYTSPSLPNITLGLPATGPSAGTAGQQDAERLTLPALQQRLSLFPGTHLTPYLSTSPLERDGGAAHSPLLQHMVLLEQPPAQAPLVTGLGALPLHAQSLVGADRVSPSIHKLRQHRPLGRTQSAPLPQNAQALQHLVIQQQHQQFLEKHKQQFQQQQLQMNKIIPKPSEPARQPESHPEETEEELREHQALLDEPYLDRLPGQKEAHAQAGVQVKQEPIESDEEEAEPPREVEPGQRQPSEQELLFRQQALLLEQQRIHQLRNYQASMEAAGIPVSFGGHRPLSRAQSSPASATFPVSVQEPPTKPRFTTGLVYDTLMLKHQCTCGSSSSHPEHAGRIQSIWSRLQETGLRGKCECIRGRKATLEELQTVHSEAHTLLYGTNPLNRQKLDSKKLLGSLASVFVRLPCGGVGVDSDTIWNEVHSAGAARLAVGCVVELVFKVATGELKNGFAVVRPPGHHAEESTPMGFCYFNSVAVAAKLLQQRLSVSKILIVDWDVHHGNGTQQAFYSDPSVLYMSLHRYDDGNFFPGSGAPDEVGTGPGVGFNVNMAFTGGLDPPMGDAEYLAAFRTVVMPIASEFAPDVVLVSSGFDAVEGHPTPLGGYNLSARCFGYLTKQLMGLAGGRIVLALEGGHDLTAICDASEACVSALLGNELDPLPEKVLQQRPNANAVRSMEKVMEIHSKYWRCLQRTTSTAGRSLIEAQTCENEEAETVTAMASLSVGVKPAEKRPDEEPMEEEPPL
From the text: as §1

rhHDAC 6 = molecular target: T1, rhHDAC 6 (Homo sapiens, UniProt Q9UBN7); experiment: Inhibition of recombinant human HDAC isoforms; type: biochemical; details: mean ± SD, triplicate per plate, min two plates; read-out: ED50 rhHDAC 6
T1 sequence (Q9UBN7 1-1215): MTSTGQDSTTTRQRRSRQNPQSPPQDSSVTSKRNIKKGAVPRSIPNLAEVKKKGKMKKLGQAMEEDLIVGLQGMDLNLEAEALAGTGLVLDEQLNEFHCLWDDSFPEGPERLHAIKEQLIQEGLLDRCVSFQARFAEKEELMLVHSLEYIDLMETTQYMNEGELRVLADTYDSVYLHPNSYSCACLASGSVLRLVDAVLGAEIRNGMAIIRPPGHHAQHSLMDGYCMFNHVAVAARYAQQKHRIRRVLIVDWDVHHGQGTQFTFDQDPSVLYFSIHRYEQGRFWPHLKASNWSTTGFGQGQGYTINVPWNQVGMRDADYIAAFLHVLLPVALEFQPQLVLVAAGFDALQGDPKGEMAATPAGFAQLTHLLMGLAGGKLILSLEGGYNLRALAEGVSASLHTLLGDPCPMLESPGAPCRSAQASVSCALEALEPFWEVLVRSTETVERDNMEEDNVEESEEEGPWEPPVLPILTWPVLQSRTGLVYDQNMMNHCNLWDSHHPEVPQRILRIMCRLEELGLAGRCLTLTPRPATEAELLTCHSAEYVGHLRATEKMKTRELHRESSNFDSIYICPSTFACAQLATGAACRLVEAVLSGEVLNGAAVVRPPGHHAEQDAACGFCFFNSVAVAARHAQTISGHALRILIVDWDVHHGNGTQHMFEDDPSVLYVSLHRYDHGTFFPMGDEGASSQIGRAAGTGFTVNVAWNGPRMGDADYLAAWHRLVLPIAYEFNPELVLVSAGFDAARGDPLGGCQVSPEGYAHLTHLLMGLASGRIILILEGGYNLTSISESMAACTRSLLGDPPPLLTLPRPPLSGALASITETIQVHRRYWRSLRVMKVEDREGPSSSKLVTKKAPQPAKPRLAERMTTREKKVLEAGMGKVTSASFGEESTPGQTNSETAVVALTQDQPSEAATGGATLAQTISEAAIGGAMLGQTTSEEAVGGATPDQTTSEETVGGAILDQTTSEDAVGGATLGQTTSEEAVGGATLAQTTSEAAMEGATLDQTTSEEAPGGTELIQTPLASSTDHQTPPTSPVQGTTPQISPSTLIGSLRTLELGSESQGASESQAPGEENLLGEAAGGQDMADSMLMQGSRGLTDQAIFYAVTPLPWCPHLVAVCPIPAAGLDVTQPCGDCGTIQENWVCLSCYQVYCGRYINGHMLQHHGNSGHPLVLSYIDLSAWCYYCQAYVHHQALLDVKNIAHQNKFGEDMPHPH
From the text: as §1

rhHDAC 7 = molecular target: T2, rhHDAC 7 (Homo sapiens, UniProt Q8WUI4); experiment: Inhibition of recombinant human HDAC isoforms; type: biochemical; details: mean ± SD, triplicate per plate, min two plates; read-out: ED50 rhHDAC 7
T2 sequence (Q8WUI4 1-952): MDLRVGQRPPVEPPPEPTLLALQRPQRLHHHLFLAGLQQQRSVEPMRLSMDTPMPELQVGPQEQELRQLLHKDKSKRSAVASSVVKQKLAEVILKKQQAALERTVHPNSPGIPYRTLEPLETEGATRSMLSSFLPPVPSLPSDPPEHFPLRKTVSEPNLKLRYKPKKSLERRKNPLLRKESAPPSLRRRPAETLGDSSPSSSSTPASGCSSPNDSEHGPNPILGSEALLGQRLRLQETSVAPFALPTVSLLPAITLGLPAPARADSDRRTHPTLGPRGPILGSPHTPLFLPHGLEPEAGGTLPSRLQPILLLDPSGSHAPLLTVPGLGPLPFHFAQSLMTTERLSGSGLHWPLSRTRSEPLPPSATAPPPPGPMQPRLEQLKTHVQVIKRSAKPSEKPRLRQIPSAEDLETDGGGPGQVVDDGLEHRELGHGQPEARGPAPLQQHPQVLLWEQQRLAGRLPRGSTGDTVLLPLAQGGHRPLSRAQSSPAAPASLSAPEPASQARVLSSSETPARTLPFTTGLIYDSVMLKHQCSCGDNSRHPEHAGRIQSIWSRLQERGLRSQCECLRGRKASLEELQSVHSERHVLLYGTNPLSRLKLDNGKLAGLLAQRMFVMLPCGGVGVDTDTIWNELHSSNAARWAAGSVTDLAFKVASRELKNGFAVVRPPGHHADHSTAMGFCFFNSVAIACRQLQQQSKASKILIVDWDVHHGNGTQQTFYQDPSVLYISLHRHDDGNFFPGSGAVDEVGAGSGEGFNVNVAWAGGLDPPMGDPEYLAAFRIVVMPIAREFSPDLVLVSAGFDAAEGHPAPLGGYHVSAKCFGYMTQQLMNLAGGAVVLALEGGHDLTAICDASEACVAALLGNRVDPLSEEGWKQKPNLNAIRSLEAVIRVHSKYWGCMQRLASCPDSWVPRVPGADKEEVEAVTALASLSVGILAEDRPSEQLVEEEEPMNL
From the text: as §1

rhHDAC 8 = molecular target: T3, rhHDAC 8 (Homo sapiens, UniProt Q9BY41); experiment: Inhibition of recombinant human HDAC isoforms; type: biochemical; details: mean ± SD, triplicate per plate, min two plates; read-out: ED50 rhHDAC 8
T3 sequence (Q9BY41 1-377): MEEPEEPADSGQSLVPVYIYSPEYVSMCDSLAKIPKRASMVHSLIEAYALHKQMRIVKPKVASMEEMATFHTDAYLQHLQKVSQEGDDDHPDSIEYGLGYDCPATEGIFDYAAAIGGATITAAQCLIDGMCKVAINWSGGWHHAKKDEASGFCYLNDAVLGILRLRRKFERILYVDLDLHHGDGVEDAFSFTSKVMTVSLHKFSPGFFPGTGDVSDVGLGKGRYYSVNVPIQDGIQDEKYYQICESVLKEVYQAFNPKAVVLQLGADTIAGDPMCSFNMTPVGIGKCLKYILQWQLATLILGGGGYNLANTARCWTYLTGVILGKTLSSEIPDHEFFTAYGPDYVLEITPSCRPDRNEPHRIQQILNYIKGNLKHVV
From the text: as §1

rhHDAC 9 = rhHDAC 9 (Homo sapiens, UniProt Q9UKV0); experiment: Inhibition of recombinant human HDAC isoforms; type: biochemical; details: mean ± SD, triplicate per plate, min two plates; read-out: ED50 rhHDAC 9
rhHDAC 9, sequence (Q9UKV0 whole entry, canonical isoform): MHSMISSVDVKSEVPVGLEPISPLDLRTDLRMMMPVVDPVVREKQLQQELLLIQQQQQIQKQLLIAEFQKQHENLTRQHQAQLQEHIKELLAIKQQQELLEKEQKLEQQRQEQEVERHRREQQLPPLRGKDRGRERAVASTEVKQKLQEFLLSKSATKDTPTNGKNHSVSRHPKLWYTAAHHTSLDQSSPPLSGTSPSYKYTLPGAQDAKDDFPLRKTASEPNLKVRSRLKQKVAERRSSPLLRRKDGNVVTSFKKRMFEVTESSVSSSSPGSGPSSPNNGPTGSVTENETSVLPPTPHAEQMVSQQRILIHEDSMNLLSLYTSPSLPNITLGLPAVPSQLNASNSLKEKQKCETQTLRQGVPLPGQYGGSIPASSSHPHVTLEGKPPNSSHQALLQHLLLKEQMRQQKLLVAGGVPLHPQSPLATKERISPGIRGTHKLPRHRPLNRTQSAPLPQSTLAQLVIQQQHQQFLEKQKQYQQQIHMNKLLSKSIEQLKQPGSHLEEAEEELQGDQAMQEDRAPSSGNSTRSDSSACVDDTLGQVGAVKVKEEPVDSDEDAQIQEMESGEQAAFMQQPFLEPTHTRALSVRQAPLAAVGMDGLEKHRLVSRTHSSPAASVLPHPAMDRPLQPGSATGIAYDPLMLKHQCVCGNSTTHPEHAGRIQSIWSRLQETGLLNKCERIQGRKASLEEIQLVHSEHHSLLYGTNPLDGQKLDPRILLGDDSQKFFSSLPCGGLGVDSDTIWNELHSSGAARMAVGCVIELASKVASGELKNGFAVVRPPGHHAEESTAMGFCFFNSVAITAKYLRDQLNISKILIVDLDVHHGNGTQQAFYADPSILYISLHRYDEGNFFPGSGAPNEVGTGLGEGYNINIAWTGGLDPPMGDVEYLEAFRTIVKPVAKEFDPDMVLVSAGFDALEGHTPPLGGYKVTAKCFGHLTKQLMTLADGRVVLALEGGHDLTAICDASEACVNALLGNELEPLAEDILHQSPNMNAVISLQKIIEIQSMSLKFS
From the text: as §1

Trypanosoma brucei (BSF) [2] = test system: Trypanosoma brucei (BSF); set-up: method as in PMID 14726511; details: cited from earlier work
DAC1 = test system: DAC1; set-up: method as in PMID 20624217; details: cited from earlier work
DAC3 = test system: DAC3; set-up: method as in PMID 20624217; details: cited from earlier work

IC50 (Trypanosoma brucei (BSF) [1]; Trypanosoma brucei, cultured bloodstream form, strain 427, triplicate, read-out: Trypanosoma brucei (BSF) IC50 ± SD)	IC90 (Trypanosoma brucei (BSF) [1]; Trypanosoma brucei, cultured bloodstream form, strain 427, triplicate, read-out: Trypanosoma brucei (BSF) IC90 ± SD)	IC50 (HDAC (FDL_HELA))	IC50 (rhHDAC 1)	IC50 (rhHDAC 2)	IC50 (rhHDAC 3)	IC50 (rhHDAC 4)	IC50 (rhHDAC 6)	IC50 (rhHDAC 7)	IC50 (rhHDAC 8)	IC50 (rhHDAC 9)	Structure (SMILES)	fold less active against T. brucei (Trypanosoma brucei (BSF) [1]; relative to heterocyclic compounds 9 and 16)	growth of bloodstream form T. brucei (Trypanosoma brucei (BSF) [2])	inhibition of DAC1 activity (DAC1)	inhibition of DAC3 activity (DAC3)
1540 ± 60 nM	2180 ± 180 nM	48 ± 28 nM	134 ± 6 nM	554 ± 44 nM	97 ± 0.6 nM	373 ± 73 nM	68 ± 13 nM	286 ± 8 nM	573 ± 30 nM	278 ± 65 nM	O=C(/C=C/c1nc2ccccc2o1)NO [Compound 20]	5- to 10 fold	–	–	–
–	–	–	–	–	–	–	–	–	–	–	CC(/C=C/C(=O)NO)=C\[C@@H](C)C(=O)c1ccc(N(C)C)cc1 [Trichostatin A]	–	suppresses growth	inhibitor	inhibitor
